Where “and” joins values, the source holds several entries; their conditions need not be identical. Equal values may be shown once. Inconclusive results and toxic doses are left out. How the source made its calls: active means survival T/C of 150% or more; inactive means T/C below 125% in these data.
Tested on: P388 leukemia ip, CD2F1 mice, survival T/C
Assay: NCI In Vivo Anticancer Drug Screen. Data for tumor model P388 Leukemia (intraperitoneal) in CD2F1 (CDF1) mice
Settings: endpoint: median survival time, higher = longer survival
In short: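 Mice carrying the transplanted tumor received test compound or vehicle. Survival was recorded in each group, and the value is the treated-group measurement divided by that of the vehicle-treated control group.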

[1] = dose: 100.0 mg/kg/injection, schedule: Q01DX001 (ip), vehicle: Klucel (hydroxypropylcellulose) (HPC)
[2] = dose: 400.0 mg/kg/injection, schedule: Q01DX001 (ip), vehicle: Klucel (hydroxypropylcellulose) (HPC)
[3] = dose: 50.0 mg/kg/injection, schedule: Q01DX009 (ip), vehicle: Klucel (hydroxypropylcellulose) (HPC)
[4] = dose: 100.0 mg/kg/injection, schedule: Q01DX009 (ip), vehicle: Klucel (hydroxypropylcellulose) (HPC)
[5] = dose: 200.0 mg/kg/injection, schedule: Q01DX009 (ip), vehicle: Klucel (hydroxypropylcellulose) (HPC)
[6] = dose: 50.0 mg/kg/injection, schedule: Q01DX005 (ip), vehicle: saline with Tween-80
[7] = dose: 100.0 mg/kg/injection, schedule: Q01DX005 (ip), vehicle: saline with Tween-80
[8] = dose: 50.0 mg/kg/injection, schedule: Q01DX009 (ip), vehicle: saline with Tween-80
[9] = dose: 100.0 mg/kg/injection, schedule: Q01DX001 (ip), vehicle: saline with Tween-80
[10] = dose: 200.0 mg/kg/injection, schedule: Q01DX001 (ip), vehicle: saline with Tween-80
[11] = dose: 400.0 mg/kg/injection, schedule: Q01DX001 (ip), vehicle: saline with Tween-80
[12] = dose: 50.0 mg/kg/injection, schedule: Q01DX005 (ip), vehicle: Klucel (hydroxypropylcellulose) (HPC)
[13] = dose: 100.0 mg/kg/injection, schedule: Q01DX005 (ip), vehicle: Klucel (hydroxypropylcellulose) (HPC)
[14] = dose: 50.0 mg/kg/injection, schedule: Q01DX009 (ip), vehicle: saline
[15] = dose: 100.0 mg/kg/injection, schedule: Q01DX009 (ip), vehicle: saline
[16] = dose: 200.0 mg/kg/injection, schedule: Q01DX009 (ip), vehicle: saline
[17] = dose: 100.0 mg/kg/injection, schedule: Q04DX003 (ip), vehicle: Klucel (hydroxypropylcellulose) (HPC)
[18] = dose: 400.0 mg/kg/injection, schedule: Q04DX003 (ip), vehicle: Klucel (hydroxypropylcellulose) (HPC)

Measured: T/C

O=NNc1ccc(Sc2ccc3ccccc3c2)cn1
inactive: dose: 3.12 mg/kg/injection, schedule: Q01DX009 (ip), vehicle: saline 114 % of control and 122 % of control | dose: 6.25 mg/kg/injection, schedule: Q01DX009 (ip), vehicle: saline 120 % of control | dose: 12.5 mg/kg/injection, schedule: Q01DX009 (ip), vehicle: saline 114 % of control

OCc1c(Cl)nc2sccn12
inactive: dose: 25.0 mg/kg/injection, schedule: Q01DX001 (ip), vehicle: Klucel (hydroxypropylcellulose) (HPC) 109 % of control | dose: 50.0 mg/kg/injection, schedule: Q01DX001 (ip), vehicle: Klucel (hydroxypropylcellulose) (HPC) 105 % of control | [1] 93 % of control and 97 % of control | [2] 92 % of control

CCOc1c(N=Nc2ccc(O)cc2)c(C)nn1C(=S)S
inactive: dose: 60.0 mg/kg/injection, schedule: Q01DX005 (ip), vehicle: Klucel + Tween-80 115 % of control | dose: 120.0 mg/kg/injection, schedule: Q01DX005 (ip), vehicle: Klucel + Tween-80 115 % of control | dose: 240.0 mg/kg/injection, schedule: Q01DX005 (ip), vehicle: Klucel + Tween-80 118 % of control

CC(=O)N1C(=O)Cc2ccccc21
inactive: [1] 94 % of control | dose: 200.0 mg/kg/injection, schedule: Q01DX001 (ip), vehicle: Klucel (hydroxypropylcellulose) (HPC) 90 % of control | [2] 91 % of control

Cn1c(C2CCC(=O)N2Cc2ccccc2)n[nH]c1=S (stereo unspecified)
inactive: dose: 60.0 mg/kg/injection, schedule: Q01DX005 (ip), vehicle: saline with Tween-80 101 % of control | dose: 120.0 mg/kg/injection, schedule: Q01DX005 (ip), vehicle: saline with Tween-80 101 % of control | dose: 240.0 mg/kg/injection, schedule: Q01DX005 (ip), vehicle: saline with Tween-80 100 % of control

NC(=O)Nc1ccc(Cc2ccc(NC(N)=O)cc2)cc1
inactive: [3] 94 % of control | [4] 94 % of control | [5] 91 % of control

O=C(CBr)Oc1ccc([N+](=O)[O-])cc1
inactive: [6] 102 % of control | [7] 100 % of control | dose: 200.0 mg/kg/injection, schedule: Q01DX005 (ip), vehicle: saline with Tween-80 100 % of control

CCCCc1n(O)c(-c2ccccc2)c(C)[n+]1[O-]
inactive: dose: 12.5 mg/kg/injection, schedule: Q01DX009 (ip), vehicle: saline with Tween-80 100 % of control | dose: 25.0 mg/kg/injection, schedule: Q01DX009 (ip), vehicle: saline with Tween-80 92 % of control | [8] 88 % of control and 91 % of control

CCCCCCCCC(=O)CCCC
inactive: [8] 109 % of control | dose: 100.0 mg/kg/injection, schedule: Q01DX009 (ip), vehicle: saline with Tween-80 122 % of control | dose: 100.0 mg/kg/injection, schedule: Q04DX003 (ip), vehicle: saline 100 % of control | dose: 200.0 mg/kg/injection, schedule: Q04DX003 (ip), vehicle: saline 113 % of control

CCOC(=O)c1nc(C)n2cc([N+](=O)[O-])ccc12
inactive: dose: 2.0 mg/kg/injection, schedule: Q01DX009 (ip), vehicle: saline 86 % of control | dose: 4.0 mg/kg/injection, schedule: Q01DX009 (ip), vehicle: saline 91 % of control | dose: 8.0 mg/kg/injection, schedule: Q01DX009 (ip), vehicle: saline 88 % of control

CC1(C)CNC(=S)N1Cc1ccccc1
inactive: dose: 50.0 mg/kg/injection, schedule: Q01DX009 (ip), vehicle: suspension in saline 100 % of control | dose: 100.0 mg/kg/injection, schedule: Q01DX009 (ip), vehicle: suspension in saline 94 % of control | dose: 200.0 mg/kg/injection, schedule: Q01DX009 (ip), vehicle: suspension in saline 100 % of control

CCC(=O)OC1C2(O)C(OC(=O)C(C)C)C3(C)CC24OC2(C)OC15C1CC(=O)OC(c6ccoc6)C1(C)CCC5(O2)C4(C)C3CC(=O)OC (stereo unspecified)
inactive: dose: 0.37 mg/kg/injection, schedule: Q01DX009 (ip), vehicle: Klucel (hydroxypropylcellulose) (HPC) 108 % of control | dose: 0.75 mg/kg/injection, schedule: Q01DX009 (ip), vehicle: Klucel (hydroxypropylcellulose) (HPC) 101 % of control | dose: 1.5 mg/kg/injection, schedule: Q01DX009 (ip), vehicle: Klucel (hydroxypropylcellulose) (HPC) 102 % of control | dose: 3.0 mg/kg/injection, schedule: Q01DX009 (ip), vehicle: Klucel (hydroxypropylcellulose) (HPC) 96 % of control

CC/C(C=O)=C\NC(=O)Nc1ccccc1
inactive: [9] 97 % of control | [10] 101 % of control | [11] 98 % of control

Cc1nc(Nc2ccccc2C)c2ccsc2n1
inactive: [12] 91 % of control | [13] 87 % of control

O=C(O)C(=O)Nc1cccc2c1ccc1c(=O)cc(C(=O)O)[nH]c12
inactive: [14] 109 % of control | [15] 109 % of control | [16] 104 % of control

CCN(CC)Cc1cc2[nH]c3c4ccc(Cl)cc4ncc3c2cc1OC (tested in a mixture with another compound)
inactive: dose: 12.5 mg/kg/injection, schedule: Q01DX005 (ip), vehicle: saline with Tween-80 100 % of control and 108 % of control | dose: 25.0 mg/kg/injection, schedule: Q01DX005 (ip), vehicle: saline with Tween-80 109 % of control [middle of 4 runs] | [6] 102 % of control and 103 % of control and 113 % of control | [7] 105 % of control and 109 % of control and 106 % of control

CC1(C)OP(=O)(O)c2ccccc21
inactive: [3] 100 % of control | [4] 100 % of control | [5] 88 % of control

COc1ccc(CCN/C=C2\Cc3c(Cl)cccc3C2=O)cc1OC
inactive: [17] 100 % of control | dose: 200.0 mg/kg/injection, schedule: Q04DX003 (ip), vehicle: Klucel (hydroxypropylcellulose) (HPC) 93 % of control | [18] 99 % of control

Cn1c(-c2ccc(Cl)cc2)cc2cc(CN3C(=O)c4ccccc4C3=O)ccc21
inactive: dose: 25.0 mg/kg/injection, schedule: Q04DX003 (ip), vehicle: Klucel (hydroxypropylcellulose) (HPC) 95 % of control | dose: 50.0 mg/kg/injection, schedule: Q04DX003 (ip), vehicle: Klucel (hydroxypropylcellulose) (HPC) 96 % of control | [17] 87 % of control and 88 % of control | [18] 87 % of control

CCOC/C(=N\NS(=O)(=O)c1ccc(C)cc1)C1(O)Cc2c(O)c3c(c(O)c2C(O)C1)C(=O)c1c(OC)cccc1C3=O (stereo unspecified)
inactive: dose: 1.56 mg/kg/injection, schedule: Q01DX009 (ip), vehicle: other 100 % of control | dose: 3.13 mg/kg/injection, schedule: Q01DX009 (ip), vehicle: other 100 % of control | dose: 6.25 mg/kg/injection, schedule: Q01DX009 (ip), vehicle: other 103 % of control | dose: 12.5 mg/kg/injection, schedule: Q01DX009 (ip), vehicle: other 107 % of control | dose: 25.0 mg/kg/injection, schedule: Q01DX009 (ip), vehicle: other 94 % of control

O=C1C(=C(Cl)Cl)C(=O)c2ccccc21
inactive: dose: 12.5 mg/kg/injection, schedule: Q01DX005 (ip), vehicle: saline 103 % of control | dose: 25.0 mg/kg/injection, schedule: Q01DX005 (ip), vehicle: saline 100 % of control | [12] 91 % of control | dose: 50.0 mg/kg/injection, schedule: Q01DX005 (ip), vehicle: saline 95 % of control

c1ccc(C2=NN(c3ccccc3)C3(c4ccccc4)CCCN23)cc1 (stereo unspecified)
inactive: [9] 108 % of control | [10] 97 % of control | [11] 95 % of control

Cc1nc2c(cnn2C)c(=O)n1C
inactive: [12] 111 % of control | [13] 111 % of control | dose: 200.0 mg/kg/injection, schedule: Q01DX005 (ip), vehicle: Klucel (hydroxypropylcellulose) (HPC) 111 % of control

COc1ccc2c(C)cc(NNC(N)=S)nc2c1
inactive: [12] 104 % of control and 107 % of control | [13] 111 % of control and 120 % of control

CN(C)P(=O)(N(C)C)N1CCCC1
inactive: [14] 104 % of control | [15] 106 % of control | [16] 105 % of control
